Results as given in paper PMC5382548 (Scientific Reports, 2015).

Legend:
[1] = test system: MiaPaCa2 (pancreatic); assay: SRB short-term cytotoxicity assay, MiaPaCa2; assay type: cell-based; conditions: Homo sapiens, MIA PaCa-2, 96 h
Method: Short-term anti-proliferative assays were carried out by two different assays using a panel of human cancer and non-malignant human cell lines. […] The transformed human embryonic kidney cell line HEK293T (wt KRAS) was sensitive to all tested drugs, including TMPyP4, a cationic porphyrin established as a G4 ligand, as well as the anticancer drug 5-fluorouracil (5-FU).
Human cell lines, breast carcinoma (MCF7), lung carcinoma (A549), pancreatic cancer (MIA PaCa2, Panc-1), immortalised telomerase-negative human lung fibroblast (ALT) and normal human lung fibroblast (WI-38), were all purchased from American Type Cell Culture (ATCC). Cell lines were maintained in appropriate medium supplemented with 10% fetal bovine serum (Invitrogen, UK), 2 mM L-glutamine (Invitrogen, Netherlands), and other components as specified by the suppliers. All cell lines were maintained at 37°C, 5% CO2, and routinely passaged. Short-term growth inhibition was measured using the SRB assay as described previously[43] […]
After electrophoretic transfer onto nitrocellulose membranes, immunoblots were blocked with 5% milk solution, and next incubated overnight at 4 °C with primary mouse monoclonal antibody reactive to KRAS/p53 (#sc-30/sc-126; Santa Cruz Biotechnology Inc., Santa Cruz, CA, USA). […] Steady-state protein levels were expressed as mean ±SEM from at least three independent experiments.

[2] = test system: UTR-2 G4 in the 5′UTR of KRAS mRNA; assay: FRET melting assay, UTR-2 RNA G4; assay type: binding; conditions: G4 0.2 μM, ligand 1 μM
Method: (§1) Two compounds 2d and 3e were selected and evaluated for their ability to stabilize the 32-mer sequence in the NHE of the human KRAS promoter (KRAS32R)[12], two G4 motifs in the 5′UTR of KRAS mRNA (UTR-1 and UTR-2)[24] and a 21-mer DNA G4 from the human telomeric sequence (F21T). The KRAS32R sequence has been described as forming two G4 structures which exist in equilibrium. One sequence folds into a G4 (Q1) with a Tm of ~55°C that is disrupted on increasing the temperature and then, the full-length 32-mer sequence folds into a new G4 (Q2, Tm of ~72°C)[13]. In our assay, the KRAS32R sequence (in the presence or absence of IQcs) folded in a single G4 structure (Tm ≈ 54°C), as shown by the single inflection for the first derivative of the FRET melting data (Sup. Inf.; Figure S4). This monophasic behaviour was also observed in the presence of TMPyP4[13].
(§2) Oligonucleotide sequences were purchased from Eurofins MWG Synthesis GmbH, Germany or STAB VIDA Genomics Lab, Caparica, Lisbon, Portugal. […]
(§3) The ability of indolo[3,2-c]quinolines to stabilize DNA sequences was investigated using a Fluorescence Resonance Energy Transfer (FRET) assay as reported elsewhere.

[3] = test system: KRAS32R G4; assay: FRET melting assay, KRAS32R G4; assay type: binding, human; conditions: G4 0.2 μM, ligand 1 μM
Method: as §1, §2, §3

[4] = test system: UTR-1 G4 in the 5′UTR of KRAS mRNA; assay: FRET melting assay, UTR-1 RNA G4; assay type: binding; conditions: G4 0.2 μM, ligand 1 μM
Method: as §1, §2, §3

[5] = test system: UTR-2 (RNA, G4) UGUGGGAGGGGCGGGUCUGGG; assay: FRET melting; conditions: 60 mM K+; K-cacodylate pH 7.4; 0.2 μM RNA, 1 μM compound; SD ≤ 0.2

| SMILES | IC50 [1] [µM] | ΔTm UTR-2 [2] [°C] | ΔTm KRAS32R [3] [°C] | ΔTm UTR-1 [4] [°C] | ΔTm [5] [°C] |
| --- | --- | --- | --- | --- | --- |
| Cn1cc2c3ccccc3nc-2c2cc(Br)ccc21 [2a, 2-bromo-5-methyl-indolo[3,2-c]quinoline] | 2.2 |  |  |  |  |
| CCN(CC)CCCNc1ccc2c(c1)c1[nH]c3ccccc3c1c[n+]2C [2d] |  | 2.0 | 10.7 | 5.1 | 2.0 |
| CCN(CC)CCCNc1ccc2c(c1)[nH]c1c2c[n+](C)c2ccc(NCCCN(CC)CC)cc12.[Cl-] [3e] | 1.98 | 9.9 | 17.0 | 15.7 | 9.9 |
